# US20070093436A1, “Drop1, a novel marker for carcinogenesis” (Deutsches Kresforschungszentrum Stiftung Des Offentlichen …, priority 2003, published 2007)
# Assays:
# Type in all cases: cell-based, human
# [1] = system: Drop1 expression in M130 cells; assay: Treatment of cells with methyltransferase inhibitors, Drop1 expression by quantitative PCR
# Experimental: (§1) The differential expression was validated by quantitative PCR and analyzed in the Agilent 2100 Bioanalyzer (Agilent Technologies, Waldbronn, Germany, PC Hewlett packard, Vectra VL, Hewlett packard, Boeblingen; Software Agilent 2100 Bio Sizing 1.3, Agilent Technologies, Waldbronn) or by semi-quantitative analysis of the resulting cDNA on a 2% agarose gel.
# (§2) • 1 μl cDNA of the 20 μl RT-mixture (corresponding to 0.5 ng of cDNA); • 1 μl Drop1 Upper primer (5′ […] ATA 3′ corresponding to positions 8255-8278 in exon 53), 20 μM; • 1 μl Drop1 Lower primer (Lower primer 5′ […] 3′, complementary to positions 8500-8473 in exon 55), 20 μM; • 5 μl cDNA-PCR reaction buffer, 10×; • 1 μl dNTP-Mix, 10 mM; • 1 μl advantage-cDNA-polymerase mix, 50×;
# (§3) Steps 1 to 3 were repeated 34 to 46 times. After individual cycles in that range, aliquots were removed and run on a gel. The amount of PCR-product from the first cycle producing a visible band of 246 bp was then quantitated using the Agilent system and an intercalating dye to detect double-stranded DNA. Under these conditions, quantitative PCR detected Drop1 plus enaptin, yet not cpg2, and the various nexins.
# (§4) Treatment of cells with methyltransferase inhibitors was carried out as described by Widschwendter et al., J. Nat. Cancer Inst. 92 (2000), 826-832). All-trans-retinoic acid (ATRA) and 5-aza-deoxycytidine (Aza-CdR) were from Sigma Chemical Co. (St. Louis, Mo.). 1 mM solutions were prepared in dimethyl sulfoxide and diluted in culture medium. Cells were incubated either for 5 days, with […] Aza-CdR, for 24 h with […], or for 5 days with […] Aza-CdR followed by 24 h with 1 mM ATRA, or left untreated. They were detached with trypsin (0.05%)-EDTA (0.02%) in Dulbecco's phosphate-buffered saline (PBS), washed, and pelleted.
# (§5) The possibility that promoter methylation might downregulate Drop1 was investigated.
# [2] = system: Drop1 expression in SKOV-3 cells; assay: as above
# Experimental: as §1, §2, §3, §4, §5
# [3] = system: Drop1 expression in GG cells; assay: as above
# Experimental: as §1, §2, §3, §4, §5
# [4] = system: Drop1 mRNA in cell lines exhibiting a low level of Drop1 (GG and M130); assay: Treatment of cell lines exhibiting a low level of Drop1 with demethylating agents
# Experimental: as §4, §5
# [5] = 5 days 2.5 mM Aza-CdR, 24 h 1 mM ATRA, or 5 days Aza-CdR followed by 24 h ATRA
compound,measurement,setting,value
"CC1=C(/C=C/C(C)=C/C=C/C(C)=C/C(=O)O)C(C)(C)CCC1 [ATRA, all-trans-retinoic acid]",Increase of Drop1 expression versus cells in medium,[1],18 fold
same,Expression of downregulated Drop1 in cells treated with inhibitors of gene methylation,[1]; [5],1.8 × 10^−2
same,Increase of Drop1 expression,"[2]; SKOV-3, a cell line with a physiological level of Drop1",No increase of expression
same,Expression of downregulated Drop1 in cells treated with inhibitors of gene methylation,"[2]; SKOV-3 cells, 5 days 2.5 mM Aza-CdR, 24 h 1 mM ATRA, or 5 days Aza-CdR followed by 24 h ATRA",2.2 × 10^−4
same,Increase of Drop1 expression versus cells in medium,[3],2.5 fold
same,Expression of downregulated Drop1 in cells treated with inhibitors of gene methylation,[3]; [5],1.3 × 10^−4
same,Increase of Drop1 mRNA,[4],an order of magnitude
